Test results taken from patent publication US10487091B2, “Activators of autophagic flux and phospholipase D and clearance of protein aggregates including tau and treatment of proteinopathies” (THE TRUSTEES OF COLUMBIA UNIVERSITY IN THE CITY OF NEW YORK, priority 2015, dated 2019).
Read-outs that look alike come from different tables or passages of the source.

Legend:
PLD2 = target: T1, PLD2 (Homo sapiens, UniProt O14939); experiment: PLD2 activity: Proteostat/mKate2 with PLD1 inhibitor VU0150669; format: cell-based; settings: for EC50: with PLD1 inhibitor VU0150669, 50 nM
T1 construct: endogenous in cells; host or cells: HEK 293 (Jump-In) cells with tet-regulated mKate2-Tau
T1 sequence (O14939 whole entry): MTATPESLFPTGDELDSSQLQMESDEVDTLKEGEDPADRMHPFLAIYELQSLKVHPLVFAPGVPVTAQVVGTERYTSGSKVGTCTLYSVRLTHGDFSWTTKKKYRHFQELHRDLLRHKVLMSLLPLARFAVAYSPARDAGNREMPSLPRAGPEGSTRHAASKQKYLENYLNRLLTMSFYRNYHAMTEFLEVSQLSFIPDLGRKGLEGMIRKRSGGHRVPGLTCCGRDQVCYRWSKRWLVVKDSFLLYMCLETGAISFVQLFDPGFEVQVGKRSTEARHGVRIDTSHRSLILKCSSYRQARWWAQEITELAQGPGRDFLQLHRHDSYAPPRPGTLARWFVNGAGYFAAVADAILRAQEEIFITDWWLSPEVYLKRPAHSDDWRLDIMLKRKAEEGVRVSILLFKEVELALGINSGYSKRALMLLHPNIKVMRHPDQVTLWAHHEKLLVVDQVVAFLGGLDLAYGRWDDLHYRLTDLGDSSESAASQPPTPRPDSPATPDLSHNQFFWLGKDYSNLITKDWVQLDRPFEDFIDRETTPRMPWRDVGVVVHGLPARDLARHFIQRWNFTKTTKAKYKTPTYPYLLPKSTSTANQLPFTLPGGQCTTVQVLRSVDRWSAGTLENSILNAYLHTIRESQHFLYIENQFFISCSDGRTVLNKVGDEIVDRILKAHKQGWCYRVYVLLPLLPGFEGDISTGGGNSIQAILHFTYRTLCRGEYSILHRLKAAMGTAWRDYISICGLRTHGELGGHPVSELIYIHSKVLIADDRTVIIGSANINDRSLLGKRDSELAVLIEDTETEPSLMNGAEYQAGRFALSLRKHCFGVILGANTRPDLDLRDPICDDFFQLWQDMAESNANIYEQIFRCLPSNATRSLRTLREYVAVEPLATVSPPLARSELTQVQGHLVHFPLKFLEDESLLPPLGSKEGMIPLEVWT
Procedure: (§1) The assay was run in e18 primary cortical neurons from PLD1 or PLD2 KO mice cultured for 14 days. Alternatively, the assay can be run in the cells described above in the presence of excess PLD1 or PLD2 inhibitor to preclude that particular action from contributing to the effect of the drug.
(§2) 4) On the day of experiment, cells were washed in warmed HBSS twice before media containing test compound (n=3 per compound per dose), inhibitor (355 nM ML298 or 50 nM VU0150669), or vehicle are added to the wells (1.5 mL in 6 well, 600 μL in 12 well). Plates were incubated for 24 hours at 37° C. with 5% CO2.

mKate2 tagged Tau = experiment: Tau-mKate2 fluorescence EC50; format: cell-based; settings: Homo sapiens; 50% reduction of mKate2 fluorescence (tau tag)
Procedure: (§3) 1) HEK cells with tet-regulated expression of mKate2 tagged Tau were grown in DMEM medium (Dulbecco's Modified Eagle's Medium) containing 0.5 μg/mL doxycycline (Dox)(MP-Bio#198955), after 3-5 days Dox was removed by washing the cells twice with sterile phosphate buffered saline (PBS; Invitrogen#14190-144), cells were left in DMEM without Dox for 72 hours (to further clear remaining Dox in cells).
The test compounds (along with CytoID™ dye and Hoechst stain) were added to the cells and incubated for 3 hours. Reference compounds were also used in each plate, Rapamycin was used for autophagy induction and chloroquine was used for lysosomal inhibition. […] Cells were then washed and read using a fluorescence plate reader. Hoescht, Cyto-ID™ and mKate2 were measured using 3 distinct wavelengths on the plate reader. […] After reading, test compound was re-added and the cells are left for a further 21 hours. At the 24 hour time point cells were once again washed and plates read using the fluorescence plate reader.
5) Treatment plate was then washed quickly 3 times with warm FB-DMEM (100 μL/well). […] At this point, the plate was ready for reading. See details in Reading Plate section. Hoescht was read at Excitation wavelength (Ex)=355 nm & Emission wavelength (Em)=446 nm. mKate2 was read at Ex=575 nm & Em=630 nm. Cyto-ID™ was read at Ex=463 nm & Em=534 nm. […]

[1] = Cytotoxicity LC50 (XTT assay for cell viability); format: cell-based; settings: human, transfected HEK 293 cells that express mKate2-tagged Tau;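 note: cells carry doxycycline-repressible Tau, induced by withdrawing doxycycline for 72 h before compound exposure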
Procedure: The cells were grown in the presence of the antibiotic doxycycline. When the antibiotic is removed the cells produce Tau (which can be quantified), thus allowing the test compounds' effects on Tau's production to be compared. Doxycycline was removed for 72 hours prior to exposure to the test compounds to promote sufficient Tau production. Cells were subsequently plated into plates for each of the assays described below.

PLD1 = target: T2, PLD1 (Homo sapiens, UniProt Q13393); experiment: PLD1 activity: Proteostat/mKate2 with PLD2 inhibitor ML298; format: cell-based; settings: with ML298, PLD2 inhibitor (355 nM)
T2 construct: endogenous in cells; host or cells: HEK 293 (Jump-In) cells with tet-regulated mKate2-Tau
T2 sequence (Q13393 1-1074): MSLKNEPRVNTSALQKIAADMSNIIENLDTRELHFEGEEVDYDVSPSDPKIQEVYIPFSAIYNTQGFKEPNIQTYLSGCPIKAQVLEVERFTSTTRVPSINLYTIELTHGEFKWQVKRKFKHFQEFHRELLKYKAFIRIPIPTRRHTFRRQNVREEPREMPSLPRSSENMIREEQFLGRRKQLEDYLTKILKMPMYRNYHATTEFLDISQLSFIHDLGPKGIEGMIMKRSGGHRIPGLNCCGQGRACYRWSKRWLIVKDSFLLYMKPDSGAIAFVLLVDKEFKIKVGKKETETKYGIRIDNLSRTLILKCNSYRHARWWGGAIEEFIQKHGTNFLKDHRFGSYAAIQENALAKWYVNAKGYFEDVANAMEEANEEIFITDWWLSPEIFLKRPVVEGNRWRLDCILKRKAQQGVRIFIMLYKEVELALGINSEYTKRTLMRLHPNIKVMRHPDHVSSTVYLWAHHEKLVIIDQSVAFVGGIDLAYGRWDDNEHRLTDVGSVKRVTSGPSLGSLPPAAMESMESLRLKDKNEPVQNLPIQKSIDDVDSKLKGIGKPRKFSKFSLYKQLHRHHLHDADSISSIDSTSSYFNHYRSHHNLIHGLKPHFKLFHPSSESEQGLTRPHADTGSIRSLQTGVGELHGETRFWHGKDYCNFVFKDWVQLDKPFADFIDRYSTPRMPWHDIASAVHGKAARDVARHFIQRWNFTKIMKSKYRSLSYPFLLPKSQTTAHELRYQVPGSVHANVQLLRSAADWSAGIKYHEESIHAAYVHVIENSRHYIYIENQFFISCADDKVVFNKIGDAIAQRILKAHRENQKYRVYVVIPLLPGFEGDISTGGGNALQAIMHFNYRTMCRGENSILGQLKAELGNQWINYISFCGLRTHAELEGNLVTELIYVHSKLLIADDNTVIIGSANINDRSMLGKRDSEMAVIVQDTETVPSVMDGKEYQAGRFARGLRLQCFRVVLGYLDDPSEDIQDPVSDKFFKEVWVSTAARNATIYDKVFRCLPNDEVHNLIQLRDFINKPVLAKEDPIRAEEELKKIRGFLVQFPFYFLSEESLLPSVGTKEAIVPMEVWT
Procedure: as §1, §2

aggregates (Proteostat) = experiment: Proteostat protein aggregation assay EC50; format: cell-based; settings: Homo sapiens; 50% reduction of Proteostat levels (fluorescent marker of aggregates)
From the text: (§4) Proteostat™ assay was used to detect aggresomes via measurement of p62. Aggresomes are inclusion bodies that form when the ubiquitin-proteasome machinery is overwhelmed with aggregation-prone proteins. Typically, an aggresome forms in response to some cellular stress, such as hyperthermia, viral infection, or exposure to reactive oxygen species. Aggresomes may provide a cytoprotective function by sequestering the toxic, aggregated proteins and may also facilitate their ultimate elimination from cells by autophagy. Following the final plate read described in the Cyto-ID™ assay described above, Proteostat™ detection reagent was added to every well and the plate was incubated for 15 minutes. Following this incubation, the plate was read by fluorescence plate reader at the specified wavelength. After this plate read, the cells were fixed by incubating with warm paraformaldehyde for 8 minutes. The fixed cells were then read by plate reader as before.
8) Detection solution was prepared by adding 10 μl Proteostat™ detection reagent (ENZ-51023-KP002) and 200 μL of 10× assay buffer into 1790 μL water and mixing well.
9) 20 μL was added per well (each well had 80 μl of Fluorobrite™ media with no FBS) and incubated in the dark for 15 min at room temperature.
10) Fluorescence for Proteostat™ (Ex=550 nm; Em=600 nm) was then read.

[2] = Photodiode array (PDA) detection of compound in mouse brain; format: in vivo; settings: FIG. 1
From the text: FIG. 1 is a graph showing a photodiode array (PDA) spectrum of WHYKD8 in mouse brain.
A photodiode array (PDA) was used to detect WHYKD8 in mouse brain (FIG. 1).

Tau/aggregate = Tau/aggregate inhibition in HEK 293 cells expressing mKate2-tagged Tau; format: cell-based, Human; settings: Homo sapiens, HEK293
Procedure: as §3
(§5) The test compounds (along with CytoID™ dye and Hoechst stain) were added to the cells and incubated for 3 hours. Reference compounds were also used in each plate, Rapamycin was used for autophagy induction and chloroquine was used for lysosomal inhibition. After 3 hours test compound was aspirated off and kept. Cells were then washed and read using a fluorescence plate reader. Hoescht, Cyto-ID™ and mKate2 were measured using 3 distinct wavelengths on the plate reader. The Hoescht measurement allowed normalisation of results across wells. After reading, test compound was re-added and the cells are left for a further 21 hours. At the 24 hour time point cells were once again washed and plates read using the fluorescence plate reader.
as §4
Western blot assays were performed to determine protein changes in Tau and p62. Cells were cultured as above and incubated with test compounds for 24 h. Following test compound incubation, the test compound was aspirated off and cells were washed before harvesting. Cells were spun at a low speed and supernatant was aspirated to leave the cell pellet. The cell pellet was then homogenized in buffer, centrifuged at high speed, and the supernatant aspirated and further separated into total fraction and aggregate fraction allowing quantification of soluble and insoluble proteins. Western blots were run on the samples, gels transferred to nitrocellulose and incubated with antibodies for Tau and p62. After incubation with secondary antibodies for detection, the bands of protein were quantified by chemiluminescence.

phospholipase D (PLD) = experiment: PLD assay (conversion of phospholipids to phosphatidylethanols in presence of ethanol, LC/MS); format: cell-based, mice; settings: PLD activation, fold; 24 hours incubation
Procedure: Cells were incubated with test compound for 24 hours. 25 minutes prior to harvest at 24 hours, 3% ethanol solution was added to the wells to catalyze cleavage of the phospholipid. Cells were then placed on ice, washed and harvested. The harvested cells were centrifuged and the supernatant was aspirated and the pellet kept. The pellet was resuspended and chloroform/methanol lipid extraction was performed. The sample was centrifuged and the organic layer was separated, dried under nitrogen and stored at −80° C. On the day of analysis, samples were resuspended and analysed by LC/MS. All phosphatidylethanol species (PEtOH32-40:0-6:16/18:0/1) were combined together and represented as total lipid content (all lipid species).
as §1, §2
5) 25 minutes prior to harvest, a 165 μL of a 3% ethanol solution was added to each well.
PLD activation converts phospholipids to phosphatidylethanols in the presence of ethanol. […] FIPI is a non-competitive inhibitor of PLD activity and was used as a negative control.

Autophagy Markers = experiment: Autophagy markers (Cyto-ID assay) in HEK 293 cells; format: cell-based, Human
Procedure: The dye used in the kit prevents its accumulation within lysosomes, but enables labelling of vacuoles associated with the autophagy pathway using the LC3 biomarker.
as §5
2) Test samples were prepared in warm FluoroBrite™ DMEM and with 10% FBS and 1% NEAA (FB-DMEM). Rapamycin 200 nM (Enzo #BML-A275-0025) was used for autophagy induction and […] chloroquine was used for lysosomal inhibition (bafilomycin or similar compounds were not used as they give a false negative result in the assay). Dimethyl Sulfoxide 1:1000 (DMSO; Fisher #BP231-100) was used as control. Autophagosome marker Cyto ID™ (1:500; Enzo #ENZ-51031-k200) and Hoechst (1:200) was added to these test sample preparations before treating the cells.
7) At 24 hours post reaction all medium was aspirated and the plate was washed 3 times with warm FB-DMEM, and read again for Hoescht (Ex=355 nm Em=446 nm), CytoID™ (Ex=463 nm; Em=534 nm) and mKate2 (Ex=575 nm; Em=630 nm) in 80 μl of FB-DMEM.

Row | SMILES | Proteostat PLD2/PLD1 ratio (PLD2; Proteostat readout) | mKate2 PLD2/PLD1 ratio (PLD2; mKate2 readout) | EC50 (PLD2; read-out: Proteostat (nM) using pharmacological inhibitor PLD2) | EC50 (PLD2; read-out: mKate2 (nM) using pharmacological inhibitor PLD2) | EC50 (mKate2 tagged Tau) | CC50 ([1]; XTT assay, 200 = upper concentration limit tested, read-out: LC50 (the source's name)) | EC50 (PLD1; read-out: Proteostat (nM) using pharmacological inhibitor PLD1) | EC50 (PLD1; read-out: mKate2 (nM) using pharmacological inhibitor PLD1) | EC50 (aggregates (Proteostat)) | detection in mouse brain [2] | inhibition at 1 µM (Tau/aggregate) | PLD (phospholipase D (PLD)) | CC50 ([1]; read-out: Cyto-toxixity LC50) | % Increase Autophagy Markers (Autophagy Markers)
1 | c1cnc2c(SC3CCCC3)ncnc2c1 [WHYKD36] | 1.5 | 1.7 | 604 nM | 2280 nM | 1040 nM | 67000 nM | 394 nM | 1330 nM | 383 nM |  |  |  |  | 
2 | Oc1ccc(CCNc2ncnc3ccc(Cl)cc23)cc1 [WHYKD8] |  |  |  |  |  |  |  |  |  | readily detected | 30% | 2.8X | > 100000 nM | 25%
